According to patent US11096903B2, “Use of pinocarveol” (INDUSTRY-ACADEMIC COOPERATION FOUNDATION, YONSEI UNIVERSITY, priority 2015, dated 2021):
Where “and” joins values, the source holds several entries; their conditions need not be identical. Identical values can stand only once.

Tests used:
[1] = tested on: Dietary Obese Mice; assay: Liver function indexes (ALT, AST activity) in blood plasma; format: in vivo; details: PD vs HFD group, 10 weeks
Procedure: (§1) As a control drug, metformin (Met) or sibutramine (Sibu) which is an anti-obesity drug was added at a concentration of about 0.01% to HFD and used (Table 1). For a normal diet (chow) group, a commercially available rodent chow was fed. Pinocarveol, metformin, and sibutramine were all purchased from Sigma-Aldrich Company (U.S.).
(§2) 5-week-old male C57BL/6J mice (Orient, Korea) were adjusted to a laboratory condition with solid feed for one week and randomly assigned to a high fat diet control group and experimental groups according to the randomized block method, followed by raising for ten weeks. Diet was supplied with water between 10 and 11 a.m. every day, intake amounts of diet was measured every day, and weight was measured every week. In order to prevent sudden weight changes due to feed intake, feed containers were removed, and weight was measured after 2 hours. Experimental animals were fasted for 12 hours or longer and anaesthetized by diethyl ether, and blood, liver, adipose tissues of internal organs (epididymal fat, fat around the kidney, mesenteric fat, and retroperitoneal fat) were collected, washed with 0.1M phosphate buffer solution (pH 7.4), and measured for weight. Blood collected from abdominal aorta was centrifuged at 1,000×g for 15 minutes to separate blood plasma.

[2] = tested on: Dietary Obese Mice; assay: Fasting blood glucose and insulin concentration; format: in vivo; details: PD vs HFD group, 10 weeks
Procedure: as §1
Meanwhile, the glucose concentration of the blood plasma obtained during fasting which was collected from mice raised for 10 weeks was measured by using a biochemical automatic analyzer (Express Plus, Chiron Diagnostics Co., U.S.), and kit reagents for analysis were purchased from Bio-Clinical System (Korea).
The insulin concentration of blood plasma obtained during fasting was measured by using a mouse insulin ELISA kit (Millipore Corporation, U.S.).

[3] = cited from earlier work
[4] = tested on: Dietary Obese Mice; assay: Liver weight and lipid concentration of hepatic tissue (Folch extraction); format: in vivo; details: PD vs HFD group, 10 weeks
Procedure: as §1, §2
Lipid components of hepatic tissues were collected as follows according to the method by Folch, et al. (Folch J, Lees M, Sloane Stanley G H. A simple method for the isolation and purification of total lipids from animal tissues. J Bio Chem. 1957; 226: 497-509). 1 mL of distilled water was applied to a hepatic tissue (0.25 g) and homogenized by using a Polytron homogenizer (IKA-WERKE GmbH & Co., Ultra-Turrax, Staufen, Germany). 5 mL of a chloroform:methanol solution (2:1, v/v) was added to the homogeneous solution, mixed well and centrifuged at 1,000×g for 10 minutes to separate a lower phase. 2 mL of a chloroform:methanol solution (2:1, v/v) was added to an upper phase again, and after repeating the same procedure, lipid components of the liver were completely separated. 3 mL of a chloroform:methanol:0.05% CaCl2) (3:48:47, v/v/v) solution was added to the lower phase thus obtained, mixed for 1 minute, and centrifuged at 1,000×g for 10 minutes. After obtaining the final lower phase and completely drying with nitrogen gas, the dried lipids were dissolved in 1 mL of methanol to use for lipid component analysis.
The concentrations of neutral fat, cholesterol, and free fatty acids of the lipid extracts of hepatic tissues were measured by using the same commercially available measurement kit (Bio Clinical System, Korea) as previously used for the analysis of plasma lipid concentration.

[5] = tested on: IL-6, TNFα, MCP1, and leptin; assay: Inflammatory cytokine concentration in blood (ELISA); format: in vivo, mice; details: PD vs HFD group, 10 weeks
Procedure: as §1
The concentrations of plasma IL-6, TNFα, MCP1, and leptin were measured by the ELISA method using the Milliplex map kit (Millipore Corporation, U.S.).

[6] = tested on: genes related to thermogenesis and adipogenesis; assay: RT-PCR gene expression in adipose tissues of internal organs; format: in vivo, mice; details: PD vs HFD
Procedure: (§3) 1 mL of TRIzol solution was added per 0.1 g of adipose tissues of internal organs and hepatic tissues, and tissues were crushed and centrifuged at 4° C. and 12,000×g for 10 minutes. The supernatant was placed in a new tube, and 200 μL of chloroform was added followed by stirring. After repeating this procedure twice, the supernatant was placed in a new tube, and isopropanol and the supernatant were added at a ratio of 1:1. After strongly shaking for 10 times, the mixture was placed at room temperature for 10 minutes, centrifuged at 4° C. and 12,000×g for 10 minutes to remove the supernatant, and 1 mL of 70% ethanol was added to the precipitate to be centrifuged at 4° C. and 7,500×g for 5 minutes. After removing ethanol, the tube containing RNA precipitate was dried at room temperature for 5 minutes, and RNA pellet was dissolved using nuclease free water. By a using UV/VIS spectrophotometer (Beckman coulter, DU730, U.S.), the concentrations of RNA samples extracted at wavelengths of 260 nm and 280 nm were measured, and by carrying out agarose gel electrophoresis, the integrity of RNA samples was determined.
(§4) For RNA samples extracted from adipose tissues of internal organs and hepatic tissues, oligo dT primers and superscript reverse transcriptase (GIBCO BRL, U.S.) were used to carry out reverse transcription to synthesize cDNA. By using the cDNA obtained by reverse transcription as a […] and using a 5′ and 3′ flanking sequence of the cDNA of the gene to be amplified as a primer, PCR was carried out, and at this time, the sequences of the used primers are shown in Table 2. 1 μL of the amplified PCR product was subject to electrophoresis on a 1% agarose gel to check for DNA bands.

[7] = tested on: Dietary Obese Mice; assay: Body weight gain, diet intake and food efficiency ratio in high fat diet-fed mice; format: in vivo; details: 10 weeks
Procedure: as §1, §2

[8] = tested on: Dietary Obese Mice; assay: Oral glucose tolerance test; format: in vivo; details: PD vs HFD group, at 8 weeks, d-glucose 2 g/kg oral
Procedure: An obesity inducing diet used in the present invention included a high fat control diet (HFD: 40% fat calorie, 17 g lard, and 3% corn oil/100 g diet), and a pinocarveol-supplemented high fat diet (PD) supplemented with pinocarveol (80,613, Sigma-Aldrich Company, CAS Number: 547-61-5, (1S,3R,5S)-6,6-dimethyl-2-methylenebicyclo[3,1,1]heptan-3-ol) has the same composition as HFD, but about 0.2% of pinocarveol was added. As a control drug, metformin (Met) or sibutramine (Sibu) which is an anti-obesity drug was added at a concentration of about 0.01% to HFD and used (Table 1). For a normal diet (chow) group, a commercially available rodent chow was fed. Pinocarveol, metformin, and sibutramine were all purchased from Sigma-Aldrich Company (U.S.).
At 8 weeks of experimental raising, experimental animals were fasted for 16 hours and orally administered with d-glucose corresponding to 2 g/kg body weight, and blood was collected from the tail vein of mice at time points of 15 minutes, 30 minutes, 60 minutes, and 120 minutes. The glucose concentration of collected blood was measured by using a script-operation blood glucose sensor (ONETOUCH Ultra, Inverness Medical Ltd., U.K.).

[9] = tested on: Dietary Obese Mice; assay: Plasma lipid concentration (commercial measurement kit); format: in vivo; details: 10 weeks
Procedure: as §1, §2
In order to evaluate the concentrations of plasma cholesterol, neutral fat, and free fatty acids of experimental animals raised for ten weeks, a commercially available measurement kit (Bio Clinical System, Korea) was used to perform measurement by repeating 2 measurements, respectively.

[10] = tested on: genes related to lipogenesis; assay: RT-PCR gene expression in hepatic tissues; format: in vivo, mice; details: PD vs HFD
Procedure: as §3, §4

[11] = tested on: β-catenin; assay: Western blot of β-catenin in adipose tissues of internal organs; format: in vivo, mice; details: PD vs HFD
Procedure: (§5) A predetermined amount of visceral fat or hepatic tissues was homogenized with liquid nitrogen and a lysis buffer solution in a mortar and centrifuged at 13,000×g and 4° C. for 20 minutes, and the middle layer was obtained to quantify proteins according to the Bradford method. 50 μg of the protein was subject to electrophoresis on an SDS polyacrylamide gel, was subject to electroblotting on a PVDF hyper film, and was reacted with the corresponding antibody, β-catenin, phospho-AMPK (AMP-activated protein kinase), AMPK, GAPDH (Cell-Signaling Technology, U.S.), respectively. The signal of each protein was visualized by a chemiluminescent detection system (Amersham, U.K.), and the thickness of bands was quantified by using the Quantity One Analysis Software (Bio-Rad Laboratories, U.S.).

[12] = tested on: Dietary Obese Mice; assay: Visceral fat weight in high fat diet-fed mice; format: in vivo; details: 10 weeks
Procedure: as §1, §2
After feeding the experimental diets for 10 weeks, each of epididymal fat, fat around the kidney, mesenteric fat, and retroperitoneal fat, which compose visceral fat, was extracted to measure the weight thereof.

[13] = tested on: AMPK; assay: Western blot of p-AMPK/AMPK in hepatic tissues; format: in vivo, mice; details: PD vs HFD
Procedure: as §5

## C=C1[C@H](O)C[C@@H]2C[C@H]1C2(C)C [pinocarveol, (1S,3R,5S)-6,6-dimethyl-2-methylenebicyclo[3,1,1]heptan-3-ol]
[1]
  decrease in alanine aminotransferase (ALT) activity in blood plasma: 44% and 52%
  decrease in aspartate aminotransferase (AST) activity in blood plasma: 32% and 34%
[2]
  decrease in fasting blood glucose concentration: 21%
  decrease in fasting blood insulin concentration: 50%
[3]; oil and ethanol
  solubility in oil and ethanol: dissolve in oil and ethanol
[3]; water
  solubility in water: does not dissolve
[4]
  decrease in absolute liver weight: 30%
  decrease in free fatty acid concentration of hepatic tissue: 65%
  decrease in neutral fat concentration of hepatic tissue: 33%
  decrease in total cholesterol concentration of hepatic tissue: 31%
[5]
  decrease in plasma IL-6 concentration: 70%
  decrease in plasma MCP1 concentration: 35%
  decrease in plasma TNFα concentration: 28%
  decrease in plasma leptin concentration: 40%
[6]
  C/EBPα gene expression: significantly decreased
  CD36 gene expression: significantly decreased
  FAS gene expression: significantly decreased
  PGC-1α gene expression: significantly increased
  PPARγ2 gene expression: significantly decreased
  UCP1 gene expression: significantly increased
  UCP3 gene expression: significantly increased
  leptin gene expression: significantly decreased
[6]; listed as PD
  C/EBPα gene expression: significantly decreased again
  CD36 gene expression: significantly decreased again
  FAS gene expression: significantly decreased again
  PGC-1α gene expression: significantly increased again
  PPARγ2 gene expression: significantly decreased again
  UCP1 gene expression: significantly increased again
  UCP3 gene expression: significantly increased again
  leptin gene expression: significantly decreased again
[7]; PD (about 0.2% pinocarveol in HFD) vs HFD group
  decrease in cumulative body weight gain: 32%
[7]; PD vs HFD group
  decrease in food efficiency ratio (cumulative body weight gain / total diet intake): 32%
[8]
  blood glucose concentrations over time after sugar intake (OGTT): decrease
  reduction of area under the curve (AUC) of the glucose concentration (OGTT): 20%
[9]; PD vs HFD group
  decrease in plasma free fatty acid concentration: 39%
  decrease in plasma neutral fat concentration: 27%
  decrease in plasma total cholesterol concentration: 16%
[9]; between the experimental groups
  HDL-cholesterol concentration in blood: did not show any significant difference
[10]
  ACC gene expression: significantly decreased
  FAS gene expression: significantly decreased
  LPL gene expression: significantly decreased
  LXRα gene expression: significantly decreased
  SREBP gene expression: significantly decreased
[10]; listed as PD
  ACC gene expression: significantly decreased again
  FAS gene expression: significantly decreased again
  LPL gene expression: significantly decreased again
  LXRα gene expression: significantly decreased again
  SREBP gene expression: significantly decreased again
[11]
  protein expression amount of β-catenin: significant increase
[11]; listed as PD
  protein expression amount of β-catenin: significantly increased
[12]; PD vs HFD group
  decrease in total visceral fat weight: 32%
  weights of epididymal fat, fat around the kidney, mesenteric fat, and retroperitoneal fat: significantly reduced
[12]; vs sibutramine and metformin diets
  effect of reducing body weight and visceral fat amount compared with control drugs: as much excellent effect of reducing body weight and visceral fat amount as commercially available anti-obesity drugs (sibutramine) and diabetes treatment drugs (metformin)
[13]
  activation (p-AMPK/AMPK ratio) of AMPK: significant increase
[13]; listed as PD
  activation (p-AMPK/AMPK ratio) of AMPK: significantly increased
